The subject of test [1] is previously treated patients with SCLC. Conditions: phase II, ref Stephenson et al, 2014; cited from earlier work.
The test system of another test is advanced malignancies. Conditions: phase I, cited from earlier work.
A further test relates to xenograft mouse models. Conditions: ref Siemeister et al, 2012; cited from earlier work.
The subject of test [2] is patients with advanced malignancies. Nature of the test: Tumour response. Format: in vivo, human. Conditions: 10 patients.
The subject of test [3] is proliferating cell nuclear antigen (PCNA). Nature of the test: PCNA RNA expression in whole blood. In kind it is in vivo, human. Conditions: for Difference of mean ΔCT values from baseline (ΔΔCT), PCNA: 6 h post dose, whole blood.
Test [4] deals with patients with advanced malignancies. Nature of the test: Tumour response. In kind it is in vivo, human.
In a further test the test system is human cancer cell lines. Conditions: large panel of human cancer cell lines; ref Siemeister et al, 2012; cited from earlier work.
The test system of test [5] is cell-cycle CDKs 1, 2, 4, and 6 and transcriptional CDKs 7 and 9. The conditions noted are these: cited from earlier work.
Where [6] appears, read: 104 patients with solid tumours.
[7] abbreviates: seven patients, lymphoid malignancy dose-escalation cohorts.

The values that follow come from article PMC5518866 (British Journal of Cancer, 2017).

Where two headings read alike, the source gives them in different places.

For `CCc1cnn2c(NCc3ccc[n+]([O-])c3)cc(N3CCCC[C@H]3CCO)nc12` [dinaciclib], in test [1], the Objective responses result is given as “no objective responses”. Further, in the test with advanced malignancies (ref Nemunaitis et al, 2013), the “Disease control rate (DCR)” value is 20.8%.
On to `CC(=O)c1c(C)c2cnc(Nc3ccc(N4CCNCC4)cn3)nc2n(C2CCCC2)c1=O` [palbociclib], for which the “Disease control rate (DCR)” value in the test with advanced malignancies (ref Flaherty et al, 2012) is recorded as 27%.
Consider roniciclib, for which, in the test on xenograft mouse models, the Tumour growth inhibition entry is “strongly inhibited tumour growth in a dose-dependent manner”. In addition, in test [2], the “Complete or partial response” value is “No patients” and the “Stable disease, patients” value is “five”. The “PCNA expression in peripheral whole blood (fold-change from baseline)” value in test [3] (6 h post dose on cycle 1, day 1, ovarian cancer and SCLC patients) is “significantly inhibited expression of PCNA”. Besides, in test [3] (Ovarian cancer cohort, Cycle 1, day 1), the “Difference of mean ΔCT values from baseline (ΔΔCT), PCNA” value (“Difference of mean ΔCT values” below) is reported as 1.720. The “Difference of mean ΔCT values” value in test [3] (Ovarian cancer cohort, Cycle 1, day 10) was 0.521. For the same compound, the “Difference of mean ΔCT values” value in test [3] (SCLC cohort, Cycle 1, day 1) is given as 1.006. Besides, the “Difference of mean ΔCT values” value in test [3] (SCLC cohort, Cycle 1, day 10) amounted to 0.224. In addition, the “Disease control rate (DCR)” value in test [4] (5 mg BID, solid tumours bearing a CDK-related tumour mutation (n=6)) is recorded as 33.3%. Besides, in test [4] (setting [6]), the Complete response entry is “none”, the “Disease control rate (DCR)” value came to 32.7%, the Partial response came to 1.0% and the Radiological progressive disease was 38.5%. Besides, in test [4] (setting [6]), the Response rate came out at 1.0% and the Stable disease came out at 31.7%. Also, the “Disease control rate (DCR)” value in test [4] (lymphoid malignancy dose-escalation cohorts) is given as 42.9%. In test [4] (setting [7]), the “Complete or partial response” value is on record as “none” and the “Stable disease, patients” value is “three”. The Anti-proliferative activity entry in the test with human cancer cell lines is “broad-spectrum anti-proliferative activity”. Further, the “Activity against CDKs” value in test [5] is “low nanomolar activity”.
